# Measured values from US8445469B2, “18-methyl-19-nor-17-pregn-4-ene-21,17-carbolactones, as well as pharmaceutical preparations that contain the latter” (Bayer Intellectual Property GmbH, priority 2004, dated 2013).
# Tested on: pregnancy maintenance (peripheral gestagenic activity)
# Experiment: pregnancy maintenance test in ovariectomized rats
# Assay type: in vivo, rat
# Conditions: ovariectomized pregnant rats, subcutaneous once daily with estrone 5 μg/kg/day, day 8 to day 15 or 21
# Text: Executing the Pregnancy Maintenance Test in Rats:
# In pregnant rats, removal of the corpora lutea or castration induces abortion. By exogenous supplying of progestins (gestagens) in combination with a suitable dose of estrogens, pregnancy can be maintained. The pregnancy maintenance test in ovariectomized rats serves to determine peripheral gestagenic activity of a compound.
# Rats are paired up during the proestrus overnight. Mating is monitored on the morning of the following day by vaginal smear inspection. The presence of sperm is considered in this case as day 1 of the beginning of pregnancy. On day 8 of pregnancy, the animals are ovariectomized under ether anesthesia. […]
# At the end of the test (day 15 or day 21), the animals are sacrificed under CO2 atmosphere, and live fetuses (fetuses with beating hearts) and implantation sites (early resorptions and dead fetuses including autolysis and atrophic placentas) in both uterine horns are counted. […] In uteri without fetuses or implantation sites, the number of nidation sites is determined by staining with 10% ammonium sulfide solution. The pregnancy maintenance rate is calculated as the quotient of the number of living fetuses and the total number of nidation sites (both resorbed and dead fetuses as well as nidation sites). […]
smiles,measurement,value
"CCC12CCC3C4CCC(=O)C=C4C4CC4C3C1C1CC1C21CCC(=O)O1 (stereo not drawn) [compound 3a, 18-Methyl-6α,7α-15β,16β-dimethylene-3-oxo-19-nor-17-pregn-4-ene-21,17-carbolactone]",pregnancy-maintaining dose (ED50),120 µg/kg/day
